Assay results as given in US10221163B2 (priority 2015, dated 2019).
Read-outs that look alike come from different tables or passages of the source.

How the values were obtained:
IMP-1 = IMP-1 (Serratia marcescens, UniProt P52699); test: biochemical; format: biochemical; conditions: fluorescence assay, CCF2-FA substrate, 2 pM enzyme, 2 hours at 25° C.; read-out: IMP-1 IC50
Outline: (§1)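 Two-hour, 25° C incubation of enzyme with inhibitor and CCF2-FA (7-hydroxycoumarin–cephalosporin–fluorescein). Fluorescence read-out; IC50 via 4-parameter fit.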

NDM-1 = NDM-1 (Klebsiella pneumoniae, UniProt C7C422); test: biochemical; format: biochemical; conditions: fluorescence assay, CCF2-FA substrate, 1 pM enzyme, 2 hours at 25° C.; read-out: NDM-1 IC50
Outline: as §1

VIM-1 = VIM-1 (Pseudomonas aeruginosa (strain ATCC 15692 / DSM 22644 / CIP 104116 / JCM 14847 / LMG 12228 / 1C / PRS 101 / PAO1), UniProt A0A0F7KYQ8); test: biochemical; conditions: CCF2-FA substrate, 30 pM enzyme, 2 hours at 25° C.
Outline: as §1

[1] = tested on: Escherichia coli expressing NDM-1 (CLB30005, CLB30016); format: cell-based; conditions: NDM-1 strain, with imipenem 1 μg/ml, 95% inhibition of growth
Outline: (§2)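 Imipenem 1 μg/ml + inhibitor; MBL-expressing clinical strains in 1.1×CAMHB, inoculum from saline suspension diluted 1:100; 35° C, 22–24 h; absorbance read-out.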

[2] = tested on: Klebsiella pneumoniae expressing VIM-1 (IHMA599644); format: cell-based; conditions: VIM-1 strain IHMA599644, with imipenem 1 μg/ml, 95% inhibition of growth
Outline: as §2

[3] = tested on: Serratia marcescens expressing IMP-1 (CL5741); format: cell-based; conditions: IMP-1 strain CL5741, with imipenem 1 μg/ml, 95% inhibition of growth
Outline: as §2

[4] = tested on: Pseudomonas aeruginosa efflux+ (MB9798), IMP-1; format: cell-based; conditions: concentration restoring susceptibility to imipenem at 2 μg/mL in the presence of a class A, C, D serine β-lactamase inhibitor closely related to relebactam
Outline: (§3)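 Microbroth MIC tests in PAO1-background strains with fixed imipenem and/or ceftazidime, usually at the CLSI breakpoint, plus fixed class A/C β-lactamase inhibitor against AmpC. MBL inhibitor titrated; concentration restoring susceptibility recorded and compared as fold difference between efflux+ MB9798 and efflux− MB9799.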

[5] = tested on: Pseudomonas aeruginosa efflux− (MB9799), IMP-1; format: cell-based; conditions: concentration restoring susceptibility to imipenem at 2 μg/mL in the presence of a class A, C, D serine β-lactamase inhibitor closely related to relebactam
Outline: as §3

[6] = tested on: Pseudomonas aeruginosa MB9798 vs MB9799; conditions: ratio MITC95 PA_9798/MITC95 PA_9799
Outline: as §3

[7] = fluorescence assay, read-out: VIM-1 IC50

IMP-1, sequence (P52699 whole entry, looked up, species assumed): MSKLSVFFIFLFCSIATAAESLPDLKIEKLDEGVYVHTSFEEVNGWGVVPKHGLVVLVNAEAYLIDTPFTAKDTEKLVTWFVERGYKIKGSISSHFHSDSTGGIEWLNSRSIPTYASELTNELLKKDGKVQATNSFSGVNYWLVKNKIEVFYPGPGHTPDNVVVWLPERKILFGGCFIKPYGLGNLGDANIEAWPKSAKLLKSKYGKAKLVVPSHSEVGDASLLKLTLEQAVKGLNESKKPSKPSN
NDM-1, sequence (C7C422 whole entry, looked up, species assumed): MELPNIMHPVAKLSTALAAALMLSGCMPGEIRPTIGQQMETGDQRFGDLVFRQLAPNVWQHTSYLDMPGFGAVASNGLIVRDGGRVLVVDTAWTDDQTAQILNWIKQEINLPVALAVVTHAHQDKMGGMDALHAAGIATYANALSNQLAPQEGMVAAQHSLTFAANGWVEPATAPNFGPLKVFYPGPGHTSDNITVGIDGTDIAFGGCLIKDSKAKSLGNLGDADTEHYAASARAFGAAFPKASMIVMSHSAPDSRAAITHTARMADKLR

Row | SMILES | IC50 (IMP-1) | IC50 (NDM-1) | IC50 (VIM-1; VIM-1 IC50, fluorescence assay) | Escherichia coli MITC95 [1] | Klebsiella pneumoniae MITC95 [2] | Serratia marcescens MITC95 [3] | P. aeruginosa expressing IMP-1, efflux + (MB9798) MITC95 [4] | P. aeruginosa expressing IMP-1, efflux − (MB9799) MITC95 [5] | Efflux ratio [6] | IC50 (VIM-1; [7])
1 | Nc1ccc(-c2ccc(S(=O)(=O)NC[C@@]3(N)CCNC3)c(S(N)(=O)=O)c2-c2nn[nH]n2)cn1 [Example 369, (R)-4-(6-aminopyridin-3-yl)-N1-((3-aminopyrrolidin-3-yl)methyl)-3-(2H -tetrazol-5-yl)benzene-1,2-disulfonamide] | 0.508 nM | 0.276 nM | 0.302 nM | 0.3906 µM | 3.125 µM | 0.7813 µM | 1.563 µM | 1.563 µM | 1.00 | –
2 | NC[C@H](N)CNS(=O)(=O)c1ccc(-c2cccc3[nH]c(N)nc23)c(-c2nn[nH]n2)c1S(N)(=O)=O [Example 370, (S)-4-(2-amino-1H-benzo[d]imidazol-4-yl)-N1-(2,3-diaminopropyl)-3-(2H-tetrazol-5-yl)benzene-1,2-disulfonamide] | 0.663 nM | 0.0459 nM | 0.209 nM | 0.3906 µM | 1.563 µM | 1.172 µM | 0.7813 µM | 0.7813 µM | 1.00 | –
3 | NC[C@H](N)CNS(=O)(=O)c1ccc(-c2cccc3ccc(N)nc23)c(-c2nn[nH]n2)c1S(N)(=O)=O [Example 371, (S)-4-(2-aminoquinolin-8-yl)-N1-(2,3-diaminopropyl)-3-(2H-tetrazol-5-yl)benzene-1,2-disulfonamide] | 0.289 nM | 0.0807 nM | 0.188 nM | 0.7813 µM | 3.125 µM | 3.125 µM | 1.563 µM | 1.563 µM | 1.00 | –
4 | NC[C@H](N)CNS(=O)(=O)c1ccc(-c2cnc(N)s2)c(-c2nn[nH]n2)c1S(N)(=O)=O [Example 372, (S)-4-(2-aminothiazol-5-yl)-N1-(2,3-diaminopropyl)-3-(2H-tetrazol-5-yl)benzene-1,2-disulfonamide] | 1.27 nM | 0.575 nM | – | 1.563 µM | 3.125 µM | 1.563 µM | 1.563 µM | 0.7813 µM | 2.00 | 0.914 nM
5 | NC[C@H](N)CNS(=O)(=O)c1ccc(-c2cnc3cc[nH]c3c2)c(-c2nn[nH]n2)c1S(N)(=O)=O [Example 373, (S)-N1-(2,3-diaminopropyl)-4-(1H-pyrrolo[3,2-b]pyridin-6-yl)-3-(2H-tetrazol-5-yl)benzene-1,2-disulfonamide] | 0.495 nM | 0.0516 nM | 0.121 nM | 0.3906 µM | 3.125 µM | 1.563 µM | 1.563 µM | 1.563 µM | 1.00 | –
6 | NC[C@@H](N)CNS(=O)(=O)c1ccc(-c2cccc3[nH]c(N)nc23)c(-c2nn[nH]n2)c1S(N)(=O)=O [Example 375, (R)-4-(2-amino-1H-benzo[d]imidazol-4-yl)-N1-(2,3-diaminopropyl)-3-(2H-tetrazol-5-yl)benzene-1,2-disulfonamide] | 0.6 nM | 0.0588 nM | 0.233 nM | 0.3906 µM | 1.563 µM | 1.563 µM | 1.563 µM | 1.563 µM | 1.00 | –
7 | NC[C@@H](N)CNS(=O)(=O)c1ccc(-c2cccc3ccc(N)nc23)c(-c2nn[nH]n2)c1S(N)(=O)=O [Example 376, (R)-4-(2-aminoquinolin-8-yl)-N1-(2,3-diaminopropyl)-3-(2H-tetrazol-5-yl)benzene-1,2-disulfonamide] | 0.273 nM | 0.0551 nM | 0.274 nM | 0.7813 µM | 3.125 µM | 3.125 µM | 1.563 µM | 1.563 µM | 1.00 | –
8 | NC[C@@H](N)CNS(=O)(=O)c1ccc(-c2cnc(N)s2)c(-c2nn[nH]n2)c1S(N)(=O)=O [Example 377, (R)-4-(2-aminothiazol-5-yl)-N1-(2,3-diaminopropyl)-3-(2H-tetrazol-5-yl)benzene-1,2-disulfonamide] | 1.18 nM | 0.573 nM | – | 0.7813 µM | 3.125 µM | 1.563 µM | 1.563 µM | 0.7813 µM | 2.00 | 0.885 nM
9 | NC[C@@H](N)CNS(=O)(=O)c1ccc(-c2cnc3cc[nH]c3c2)c(-c2nn[nH]n2)c1S(N)(=O)=O [Example 378, (R)-N1-(2,3-diaminopropyl)-4-(1H-pyrrolo[3,2-b]pyridin-6-yl)-3-(2H-tetrazol-5-yl)benzene-1,2-disulfonamide] | 0.354 nM | 0.0511 nM | 0.0985 nM | 0.7813 µM | 3.125 µM | 1.563 µM | 3.125 µM | 1.563 µM | 2.00 | –
10 | NCc1nc2c(-c3ccc(S(=O)(=O)N[C@@H](CN)CO)c(S(N)(=O)=O)c3-c3nn[nH]n3)cccc2[nH]1 [Example 379, (S)—N^1-(1-amino-3-hydroxypropan-2-yl)-4-(2-(aminomethyl)-1H-benzo[d]imidazol-4-yl)-3-(2H-tetrazol-5-yl)benzene-1,2-disulfonamide] | 0.626 nM | 0.0956 nM | 0.135 nM | 1.563 µM | 1.563 µM | 1.563 µM | 1.563 µM | 0.7813 µM | 2.00 | –
11 | NC[C@@H](CO)NS(=O)(=O)c1ccc(-c2ccnc(N)c2)c(-c2nn[nH]n2)c1S(N)(=O)=O [Example 380, (S)—N1-(1-amino-3-hydroxypropan-2-yl)-4-(2-aminopyridin-4-yl)-3-(2H -tetrazol-5-yl)benzene-1,2-disulfonamide] | 0.544 nM | 0.178 nM | 0.179 nM | 0.4883 µM | 1.563 µM | 0.7813 µM | 0.7813 µM | 0.7813 µM | 1.00 | –
12 | NCc1nc2c(-c3ccc(S(=O)(=O)N[C@@H](CN)CO)c(S(N)(=O)=O)c3-c3nn[nH]n3)cccc2s1 [Example 381, (S)—N1-(1-amino-3-hydroxypropan-2-yl)-4-(2-(aminomethyl)benzo[d]thiazol-4-yl)-3-(2H-tetrazol-5-yl)benzene-1,2-disulfonamide] | 0.241 nM | 0.0602 nM | 0.117 nM | 0.7813 µM | 2.344 µM | 1.172 µM | 1.172 µM | 0.7813 µM | 1.50 | –
13 | NC[C@@H](CO)NS(=O)(=O)c1ccc(-c2cccc(N)n2)c(-c2nn[nH]n2)c1S(N)(=O)=O [Example 382, (S)—N1-(1-amino-3-hydroxypropan-2-yl)-4-(6-aminopyridin-2-yl)-3-(2H-tetrazol-5-yl)benzene-1,2-disulfonamide] | 0.651 nM | 0.22 nM | – | 1.563 µM | 3.125 µM | 1.563 µM | 1.563 µM | 1.563 µM | 1.00 | 0.271 nM
